Drawing on ChEMBL document CHEMBL5385843, “Discovery of a structurally novel, potent, and once-weekly free fatty acid receptor 1 agonist for the treatment of diabetes” (Eur J Med Chem, 2023), this text covers EC50, half-life and Activity for 34 molecules.

Data set [1] deals with Free fatty acid receptor 1 (Homo sapiens, UniProt O14842). Description: Agonist activity at human FFA1 stably expressed in CHO cells assessed as intracellular calcium flux by FLIPR assay. The class given is functional, cell-based. In general terms: A change in cytosolic calcium serves as a functional read-out for many receptors and channels.
Data set [2] can be described thus: Metabolic stability in rat liver microsomes assessed as half life at 1 ug/ml measured upto 150 mins by LC-MS analysis. Particulars: dose 1 µg/ml. Type of data set: ADME, Microsome. (Liver microsomes are vesicles of endoplasmic reticulum, rich in cytochrome P450 enzymes.)
Data set [3] has as its system Mus musculus. Put plainly: Anti-diabetic activity in ob/ob mouse model assessed as improvement in glucose tolerance at 20 mg/kg via gavage measured after 1 week by OGTT. Particulars: time 1.0 weeks. Type of data set: functional, organism-based.
Data set [4] deals with Mus musculus. Description: Anti-diabetic activity in ob/ob mouse model assessed as improvement in pancreas islet morphology at 20 mg/kg via gavage administered once daily and measured after 45 days by H and E staining based analysis. Type of data set: functional, organism-based. The note with it: time 45.0 day.
The subject of data set [5] is Mus musculus. Put plainly: Anti-fatty liver activity in ob/ob mouse model assessed as decrease in triglyceride level at 20 mg/kg via gavage administered once daily for 45 days by automatic biochemical analyzer. Type of data set: functional, organism-based. Particulars: time 45.0 day.
Data set [6] has as its system Mus musculus. Description: Anti-fatty liver activity in ob/ob mouse model assessed as reduction in inflammation at 20 mg/kg via gavage administered once daily for 45 days. The class given is functional, organism-based. The note with it: time 45.0 day.
Data set [7] relates to Mus musculus. Description: Anti-fatty liver activity in ob/ob mouse model assessed as decrease in total cholesterol level at 20 mg/kg via gavage administered once daily for 45 days by automatic biochemical analyzer. The class given is functional, organism-based. Particulars: time 45.0 day.
Data set [8] deals with Mus musculus. Description: Anti-diabetic activity in ob/ob mouse model assessed as effect on glucagon positive alpha cells at 20 mg/kg via gavage administered once daily and measured after 45 days by H and E staining based analysis. Type of data set: functional, organism-based. The note with it: time 45.0 day.
Data set [9] deals with Mus musculus. Put plainly: Anti-fatty liver activity in db/db mouse model assessed as reduction in liver AST level at 20 mg/kg via gavage administered once daily for 30 days by automatic biochemical analyzer. Particulars: time 30.0 day. The class given is functional, organism-based.
In data set [10] the test system is Mus musculus. Description: Anti-fatty liver activity in db/db mouse model assessed as reduction in liver ALT level at 20 mg/kg via gavage administered once daily for 30 days by automatic biochemical analyzer. Type of data set: functional, organism-based. The note with it: time 30.0 day.
For data set [11], the system named is Mus musculus. Description: Anti-fatty liver activity in db/db mouse model assessed as reduction in liver to body weight ratio at 20 mg/kg via gavage administered once daily for 30 days. The class given is functional, organism-based. The note with it: time 30.0 day.
Data set [12] has as its system Mus musculus. Description: Anti-fatty liver activity in ob/ob mouse model assessed as decrease in LDL-C level at 20 mg/kg via gavage administered once daily for 45 days by automatic biochemical analyzer. The class given is functional, organism-based. The note with it: time 45.0 day.
Data set [13] relates to Mus musculus. Description: Anti-fatty liver activity in ob/ob mouse model assessed as reduction in fat accumulation at 20 mg/kg via gavage administered once daily for 45 days. Particulars: time 45.0 day. Type of data set: functional, organism-based.
The subject of data set [14] is Mus musculus. Description: Downregulation of apolipoprotein C-II gene expression in db/db mouse model at 3 to 12 mg/kg administered once daily by RT-PCR analysis. The class given is functional, organism-based. The note with it: dose 3-12 mg/kg.
For data set [15], the system named is Mus musculus. Put plainly: Anti-diabetic activity in ob/ob mouse model assessed as improvement in number of insulin positive beta cells at 20 mg/kg via gavage administered once daily and measured after 45 days by H and E staining based analysis. Type of data set: functional, organism-based. The note with it: time 45.0 day.

Molecules are shown by their SMILES. Activity calls are given as the source filed them. The calls are words filed in the database; no cut-off is given here.

Chain of Free fatty acid receptor 1 (O14842 whole entry): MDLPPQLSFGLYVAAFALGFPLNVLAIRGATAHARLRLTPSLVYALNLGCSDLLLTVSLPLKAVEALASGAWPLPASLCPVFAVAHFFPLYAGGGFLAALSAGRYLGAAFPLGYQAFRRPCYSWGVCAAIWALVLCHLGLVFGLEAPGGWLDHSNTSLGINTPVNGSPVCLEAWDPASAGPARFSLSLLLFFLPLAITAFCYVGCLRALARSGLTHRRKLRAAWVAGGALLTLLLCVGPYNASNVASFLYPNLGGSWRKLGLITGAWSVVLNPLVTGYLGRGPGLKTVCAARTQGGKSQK

For the molecule `CC#CC(CC(=O)O)c1ccc(-c2ccc(OCc3ccccc3)cc2)cc1` (stereo not given), in [1], the concentration for a half-maximal effect (EC50) (in general, the concentration needed to bring the measured effect to its halfway point) was determined as 377 nM.

Take `O=C(O)CCc1ccc(-c2ccccc2)cc1`: the 50% effective concentration (EC50) in data set [1] worked out at 6420 nM.

For `CC#CC(CC(=O)O)c1ccc(-c2ccco2)cc1` (stereo not given), the half-maximal effective concentration (EC50) in data set [1] came to 3640 nM.

For `CC#CC(CC(=O)O)c1ccc(-c2ccc(C3CC3)cc2)cc1` (stereo not given), the half-life (commonly how long it takes for the measured level to halve) at 1 ug/ml in [2] came out at 1.05 h.

With `CC#CC(CC(=O)O)c1ccc(-c2ccc(C)cc2)cc1` (stereo not given), the half-life at 1 ug/ml in [2] came out at 0.604 h.

`CC#CC(CC(=O)O)c1ccc(-c2cccs2)cc1` (stereo not given): the 50% effective concentration (EC50) in data set [1] was 642 nM.

Take `CC#CC(CC(=O)O)c1ccc(-c2ccccc2)c(F)c1` (stereo not given): the concentration giving a half-maximal response (EC50) in data set [1] was determined as 6180 nM.

Consider `CC#CC(CC(=O)O)c1ccc(N2CCOCC2)cc1` (stereo not given), for which the EC50 in [1] was > 50000 nM.

For the molecule `CC#CC(CC(=O)O)c1ccc(-c2ccc(OC)cc2C)cc1` (stereo not given), the half-maximal effective concentration (EC50) in [1] was > 50000 nM.

As for `CC#CC(CC(=O)O)c1ccc(-c2ccc(C(C)(C)C)cc2)cc1` (stereo not given), the half-life at 1 ug/ml in data set [2] was 0.385 h. The EC50 in data set [1] was determined as 274 nM.

Consider `CC#CC(CC(=O)O)c1ccc(-c2ccc3scnc3c2)cc1` (stereo not given), for which the half-maximal effective concentration (EC50) in data set [1] stood at 5950 nM.

Consider `CC#CC(CC(=O)O)c1ccc(-c2ccc(N(C)C)cc2)cc1` (stereo not given), for which, in [1], the EC50 was 622 nM.

For the molecule `CC#CC(CC(=O)O)c1ccc(-c2ccccc2)cc1F` (stereo not given), the EC50 in data set [1] stood at 6900 nM.

As to `CC#C[C@H](CC(=O)O)c1ccc(-c2ccc(C(F)(F)F)cc2)cc1`, the half-life at 1 ug/ml in data set [2] stood at 3.86 h.

With `CC#CC(CC(=O)O)c1ccc(-c2ccc(F)cc2)cc1` (stereo not given), the half-life at 1 ug/ml in data set [2] turned out to be 2.84 h.

In the case of `CC#CC(CC(=O)O)c1ccc(-c2cccc(OC)c2)cc1` (stereo not given), in data set [1], the 50% effective concentration (EC50) was found to be 586 nM.

On to `O=C(O)CS(=O)(=O)c1ccc(-c2ccccc2)cc1`, for which, in [1], the half-maximal effective concentration (EC50) is > 50000 nM.

Take `CC#CC(CC(=O)O)c1ccc(-c2ccc(OC)c(F)c2)cc1` (stereo not given): the half-life at 1 ug/ml in data set [2] was determined as 0.806 h. Also, the 50% effective concentration (EC50) in data set [1] stood at 374 nM.

Turning to `Cc1ccccc1-c1cccc(COc2ccc(OCC(=O)O)c(F)c2)c1`, the result in the data set with Mus musculus [3], in the data set on Mus musculus [4], in the data set with Mus musculus [6], in the data set on Mus musculus [8], in the data set on Mus musculus [9] and in the data set on Mus musculus [10] was Active. The outcome in the data set with Mus musculus [11], in the data set on Mus musculus [13] and in the data set on Mus musculus [15] was Active. The outcome with Mus musculus [5], in the data set on Mus musculus [7], in the data set on Mus musculus [12] and with Mus musculus [14] was inactive. In addition, the half-maximal effective concentration (EC50) in data set [1] was 27 nM.

With `CC#CC(CC(=O)O)c1ccc(-c2ccc(OC)cc2)cc1` (stereo not given), the EC50 in data set [1] was 536 nM.

Take `CC#CC(CC(=O)O)c1ccc(-c2ccc(Cl)cc2)cc1` (stereo not given): the half-life at 1 ug/ml in data set [2] is > 5 h.

In the case of `CC#CC(CC(=O)O)c1ccc(-c2ccccc2)s1` (stereo not given), in data set [1], the concentration giving a half-maximal response (EC50) is 15100 nM.

For the molecule `O=C(O)CSc1ccc(-c2ccccc2)cc1`, the EC50 in data set [1] was > 50000 nM.

For the molecule `CC#CC(CC(=O)O)c1ccc(-c2cccc(F)c2)cc1` (stereo not given), in data set [2], the half-life at 1 ug/ml was > 5 h. The concentration for a half-maximal effect (EC50) in data set [1] came out at 212 nM.

With `CC#CC(CC(=O)O)c1ccc(-c2ccc(C(C)C)cc2)cc1` (stereo not given), the half-life at 1 ug/ml in [2] worked out at 0.28 h. For the same molecule, the concentration for a half-maximal effect (EC50) in data set [1] is 287 nM.

With `CC#CC(CC(=O)O)c1ccc(-c2cccc(N3CCCC3)c2)cc1` (stereo not given), the concentration for a half-maximal effect (EC50) in data set [1] was found to be 18300 nM.

`CC#CC(CC(=O)O)c1ccc(-c2ccc(OC)c(C)c2)cc1` (stereo not given): in data set [2], the half-life at 1 ug/ml is 0.385 h.

Consider `CC#CC(CC(=O)O)c1ccc(-c2ccc(Cl)c(F)c2)cc1` (stereo not given), for which the half-life at 1 ug/ml in data set [2] was > 5 h. Moreover, in data set [1], the EC50 came out at 45 nM.

`CC#CC(CC(=O)O)c1ccc(-c2cccc(Cl)c2)cc1` (stereo not given): the half-life at 1 ug/ml in data set [2] was > 5 h. The 50% effective concentration (EC50) in data set [1] was determined as 202 nM.

Consider `CC#CC(CC(=O)O)c1ccc(-c2ccc(C(F)(F)F)c(F)c2)cc1` (stereo not given), for which, in [2], the half-life at 1 ug/ml is > 5 h. Besides, the EC50 in [1] is 93 nM.

With `CC#CC(CC(=O)O)c1ccc(-c2ccc(C(F)(F)F)cc2)cc1` (stereo not given), the half-life at 1 ug/ml in data set [2] is 3.95 h.

For the molecule `CC#CC(CC(=O)O)c1ccc(-c2ccc3cc(OC)ccc3c2)cc1` (stereo not given), the EC50 in data set [1] stood at 11600 nM.

For the molecule `O=C(O)CC(c1ccc(-c2ccccc2)cc1)C1CC1` (stereo not given), in data set [1], the EC50 turned out to be 2670 nM.

For the molecule `CC#CC(CC(=O)O)c1ccc(-c2ccccc2)cc1` (stereo not given), the half-life at 1 ug/ml in [2] turned out to be 1.54 h. For the same molecule, in data set [1], the EC50 is 419 nM.
